Measured values reported in the supplement of paper PMC10307832.

Tests used:
Assay in all cases: relative viability (nuclei count vs DMSO), 5 days (fraction); higher = more cells survive
NCI-H1395 = test system: NCI-H1395
Procedure, shortened: (§1)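 Lung cancer cell lines, seeded in 1536-well plates, were treated the following day by pin tool with a single drug or with five library-drug doses (not always all listed) in √10 steps on top of a fixed anchor-drug dose. Cells were fixed and nuclei stained in one step after 5 days, and nuclei were counted. Relative viability is the nuclei count for treated wells divided by that for vehicle wells, reported as medians of duplicate plates.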

HARA = test system: HARA
Procedure, shortened: as §1

NCI-H1944 = test system: NCI-H1944
Procedure, shortened: as §1

NCI-H2342 = test system: NCI-H2342
Procedure, shortened: as §1

EPLC-272H = test system: EPLC-272H
Procedure, shortened: as §1

NCI-H358 = test system: NCI-H358
Procedure, shortened: as §1

HCC-827 = test system: HCC-827
Procedure, shortened: as §1

NCI-H1792 = test system: NCI-H1792
Procedure, shortened: as §1

NCI-H1437 = test system: NCI-H1437
Procedure, shortened: as §1

HCC-15 = test system: HCC-15
Procedure, shortened: as §1

NCI-H727 = test system: NCI-H727
Procedure, shortened: as §1

HCC-366 = test system: HCC-366
Procedure, shortened: as §1

LCLC-103H = test system: LCLC-103H
Procedure, shortened: as §1

NCI-H1975 = test system: NCI-H1975
Procedure, shortened: as §1

HCC-44 = test system: HCC-44
Procedure, shortened: as §1

NCI-H2085 = test system: NCI-H2085
Procedure, shortened: as §1

HCC-78 = test system: HCC-78
Procedure, shortened: as §1

NCI-H2405 = test system: NCI-H2405
Procedure, shortened: as §1

## CCCCCCCCCCCC1=C(O)C(=O)C=C(O)C1=O [Embelin] + NC(=O)Nc1cc(-c2cccc(F)c2)sc1C(=O)N[C@H]1CCCNC1 [AZD7762] (partner 0.2 µM)
NCI-H1395; first compound 0.08 µM
  relative viability: 0.434
NCI-H1395; first compound 0.8 µM
  relative viability: 0.425
NCI-H1395; first compound 2.53 µM
  relative viability: 0.384
NCI-H1395; first compound 8 µM
  relative viability: 0.366
HARA; first compound 0.08 µM
  relative viability: 0.37
HARA; first compound 0.8 µM
  relative viability: 0.455
HARA; first compound 2.53 µM
  relative viability: 0.52
HARA; first compound 8 µM
  relative viability: 0.362
NCI-H1944; first compound 0.08 µM
  relative viability: 0.449
NCI-H1944; first compound 0.8 µM
  relative viability: 0.566
NCI-H1944; first compound 2.53 µM
  relative viability: 0.526
NCI-H1944; first compound 8 µM
  relative viability: 0.436
NCI-H2342; first compound 0.08 µM
  relative viability: 0.47
NCI-H2342; first compound 0.8 µM
  relative viability: 0.514
NCI-H2342; first compound 2.53 µM
  relative viability: 0.546
NCI-H2342; first compound 8 µM
  relative viability: 0.456
EPLC-272H; first compound 0.08 µM
  relative viability: 0.181
EPLC-272H; first compound 0.8 µM
  relative viability: 0.296
EPLC-272H; first compound 2.53 µM
  relative viability: 0.21
EPLC-272H; first compound 8 µM
  relative viability: 0.188
NCI-H358; first compound 0.08 µM
  relative viability: 0.604
NCI-H358; first compound 0.8 µM
  relative viability: 0.739
NCI-H358; first compound 2.53 µM
  relative viability: 0.517
NCI-H358; first compound 8 µM
  relative viability: 0.491
HCC-827; first compound 0.08 µM
  relative viability: 0.191
HCC-827; first compound 0.8 µM
  relative viability: 0.21
HCC-827; first compound 2.53 µM
  relative viability: 0.193
HCC-827; first compound 8 µM
  relative viability: 0.278
NCI-H1792; first compound 0.08 µM
  relative viability: 0.853
NCI-H1792; first compound 0.8 µM
  relative viability: 0.849
NCI-H1792; first compound 2.53 µM
  relative viability: 0.814
NCI-H1792; first compound 8 µM
  relative viability: 0.547
NCI-H1437; first compound 0.08 µM
  relative viability: 1.15
NCI-H1437; first compound 0.8 µM
  relative viability: 1.16
NCI-H1437; first compound 2.53 µM
  relative viability: 1.15
NCI-H1437; first compound 8 µM
  relative viability: 1.2
HCC-15; first compound 0.08 µM
  relative viability: 1.14
HCC-15; first compound 0.8 µM
  relative viability: 1.15
HCC-15; first compound 2.53 µM
  relative viability: 1.46
HCC-15; first compound 8 µM
  relative viability: 1.41
NCI-H727; first compound 0.08 µM
  relative viability: 0.533
NCI-H727; first compound 0.8 µM
  relative viability: 0.503
NCI-H727; first compound 2.53 µM
  relative viability: 0.647
NCI-H727; first compound 8 µM
  relative viability: 0.582
HCC-366; first compound 0.08 µM
  relative viability: 0.317
HCC-366; first compound 0.8 µM
  relative viability: 0.314
HCC-366; first compound 2.53 µM
  relative viability: 0.291
HCC-366; first compound 8 µM
  relative viability: 0.281
LCLC-103H; first compound 0.08 µM
  relative viability: 0.79
LCLC-103H; first compound 0.8 µM
  relative viability: 0.866
LCLC-103H; first compound 2.53 µM
  relative viability: 0.886
LCLC-103H; first compound 8 µM
  relative viability: 0.684
NCI-H1975; first compound 0.08 µM
  relative viability: 0.708
NCI-H1975; first compound 0.8 µM
  relative viability: 0.753
NCI-H1975; first compound 2.53 µM
  relative viability: 0.806
NCI-H1975; first compound 8 µM
  relative viability: 0.703
HCC-44; first compound 0.08 µM
  relative viability: 1.07
HCC-44; first compound 0.8 µM
  relative viability: 0.994
HCC-44; first compound 2.53 µM
  relative viability: 0.999
HCC-44; first compound 8 µM
  relative viability: 1.11
NCI-H2085; first compound 0.08 µM
  relative viability: 0.956
NCI-H2085; first compound 0.8 µM
  relative viability: 1.09
NCI-H2085; first compound 2.53 µM
  relative viability: 0.93
NCI-H2085; first compound 8 µM
  relative viability: 1.03
HCC-78; first compound 0.08 µM
  relative viability: 0.555
HCC-78; first compound 0.8 µM
  relative viability: 0.773
HCC-78; first compound 2.53 µM
  relative viability: 0.661
HCC-78; first compound 8 µM
  relative viability: 0.647
NCI-H2405; first compound 0.08 µM
  relative viability: 0.696
NCI-H2405; first compound 0.8 µM
  relative viability: 0.838
NCI-H2405; first compound 2.53 µM
  relative viability: 0.876
NCI-H2405; first compound 8 µM
  relative viability: 0.716
